This is an account of results in patent US20130005676A1 (UNIVERSITY OF ROCHESTER, priority 2009, published 2013).

SMILES strings stand for the structures. “Also recorded” adds a separate entry of the source.

Test [1] concerns inflammatory pain, rat formalin test. To be noted: local injection; cited from earlier work.
For test [2], the system named is AMP deaminase. Put plainly: HPLC analysis of AMP degradation in muscle/subcutis sections from the Zusanli point. Type of test: biochemical, mice. To be noted: 200 μM, tissue incubated in 1 mM AMP for 45 min. As for the experimental part:
The analysis of enzymatic degradation of purines was based on sections (400 μm) of skeletal muscles with overlying subcutis harvested from tissue in the Zusanli point. Each section per well was placed into a 6-well plate with 2 ml (in a phosphate-free buffer (in mM: 2 CaCl2, 120 NaCl, 5 KCL, 10 Glucose, 20 HEPES, pH=7.3) and bubble with 100% O2 containing 1 mM AMP with or without 500 μM deoxycoformycin (Tocris Bioscience, UK). The samples were collected from each well at 0 and 45 min and stored at −80° C. for HPLC analysis. The analyses were carried out on an ESA reverse-phase H584 HPLC system (ESA Inc., USA) and an ESA model 526 UV detector (ESA Inc.) as previously described (Cui et al., “The Organic Cation Transporter-3 is a Pivotal Modulator of Neurodegeneration in the Nigrostriatal Dopaminergic Pathway,” Proc. Nat'l. Acad. Sci. USA 106:8043-8048 (2009); Volonte et al., “Development of an HPLC Method for Determination of Metabolic Compounds in Myocardial Tissue,” J. Pharm. Biomed. Anal. 35:647-653 (2004), which are hereby incorporated by reference in their entirety). Chromatographic separation was achieved by using a Lichrospher® 100 RP-18 column (5 μm, 250 mm×3 mm; Merck, Germany). […] Eluted purines were detected at 260 nm, and the chromatographic peaks were integrated using CoulArray software.

The subject of test [3] is mice with inflammatory pain (CFA). Put plainly: Inflammatory pain (CFA in paw): mechanical allodynia (Von Frey) and thermal hyperalgesia. The class given is in vivo. From the text: Peripheral inflammation was induced by injection of Complete Freud Adjuvant (CFA, mixed with an equal amount of oil, […], Jackson labs) (Raghavendra et al., “Complete Freunds Adjuvant-Induced Peripheral Inflammation Evokes Glial Activation and Proinflammatory Cytokine Expression in the CNS,” Eur. J. Neurosci. 20:467-473 (2004), which is hereby incorporated by reference in its entirety). […] Neuropathic pain was induced by ligation of the sciatic nerve with 4.0 polypropylene suture in mice sedated with ketamine (60 mg/kg, i.p.) and xylazine (10 mg/kg, i.p.) (Bennett et al., “A Peripheral Mononeuropathy in Rat that Produces Disorders of Pain Sensation Like Those Seen in Man,” Pain 33:87-107 (1988); Martucci et al., “The Purinergic Antagonist PPADS Reduces Pain Related Behaviours and Interleukin-1 beta, Interleukin-6, iNOS and nNOS Overproduction in Central and Peripheral Nervous System After Peripheral Neuropathy in Mice,” Pain 137:81-95 (2008), which are hereby incorporated by reference in their entirety).
Mechanical allodynia was evaluated using repeated stimulations with a Von Frey filament exerting 0.02 grams of force onto the plantar surface (Colburn et al., “The Effect of Site and Type of Nerve Injury on Spinal Glial Activation and Neuropathic Pain Behavior,” Exp. Neurol. 157:289-304. (1999), which is hereby incorporated by reference in its entirety). The percentage of negative responses of a total of 10 trials was calculated for each foot. Thermal hyperalgesia was assessed using an Analgesymeter (Ugo Basile, Comerio, Italy) (Stein et al., “Intrinsic Mechanisms of Antinociception in Inflammation: Local Opioid Receptors and Beta-Endorphin,” J. Neurosci. 10:1292-1298 (1990), which is hereby incorporated by reference in its entirety). In short, a mobile radiant heat source was focused on the hind paw, and the paw withdrawal latencies were defined as the time taken by the mouse to remove its hind paw from the heat source (max 20 sec to avoid tissue damage). The paw withdrawal was repeated three times for each foot and the average calculated. To avoid conditioning to stimulation a 5 min rest period was interposed between each trial in both thermal and mechanical tests. Behavioral parameters were evaluated prior to intraplantar injection of CFA or nerve ligation (i.e. day 0), and again on day 3-4 in mice receiving the CFA injection, and at day 5-7 in mice with nerve ligation unless otherwise noted. Prior to injection of CCPA, saline, or acupuncture in the Zusanli point, the mice were placed in a restraining under light isoflurane anesthesia (˜1%). The total duration of anesthesia was ˜2 min and mice with inflammatory, neurogenic pain, and their controls were treated similarly. 2-chloro-N6-cyclopentyl-adenosine (CCPA, 0.1 mM, 20 μl) was injected in the Zusanli point ˜5 min before acupuncture. […] The needle was slowly rotated ˜2 time (˜20-30 sec) every 5 min for a total of 30 min during an acupuncture session. A microdialysis probe (MD-2211, Bioanalytical systems, West Lafayette, Ind.) was implanted 1-3 hrs prior to collection of microdialysis samples. The microdialysis probe was implanted in a distance of 0.4-0.6 mm from the Zusanli point. The microdialysis probe was perfused with Ringer's solution at a rate of 1 μl per minute. The microdialysates were collected on ice and the perfusate collected over a 30 min period (30 μl) was immediately frozen at −80° C. until HPLC analysis. Deoxycoformycin was administered in a dose of 50 mg/kg i.p. 30 min prior to acupuncture.

In test [4] the test system is mice with neuropathic pain. Put plainly: Neuropathic pain (sciatic nerve ligation): mechanical allodynia and thermal hyperalgesia. The class given is in vivo. To be noted: WT mice, combined with acupuncture. As to the method:
Peripheral inflammation was induced by injection of Complete Freud Adjuvant (CFA, mixed with an equal amount of oil, total volume 0.1 ml) in the plantar surface of the left hind paw of mice (25-30 g, Jackson labs) (Raghavendra et al., “Complete Freunds Adjuvant-Induced Peripheral Inflammation Evokes Glial Activation and Proinflammatory Cytokine Expression in the CNS,” Eur. J. Neurosci. 20:467-473 (2004), which is hereby incorporated by reference in its entirety). An equal amount of saline (0.1 ml) was injected in the right hind paw as control. Neuropathic pain was induced by ligation of the sciatic nerve with 4.0 polypropylene suture in mice sedated with ketamine (60 mg/kg, i.p.) and xylazine (10 mg/kg, i.p.) (Bennett et al., “A Peripheral Mononeuropathy in Rat that Produces Disorders of Pain Sensation Like Those Seen in Man,” Pain 33:87-107 (1988); Martucci et al., “The Purinergic Antagonist PPADS Reduces Pain Related Behaviours and Interleukin-1 beta, Interleukin-6, iNOS and nNOS Overproduction in Central and Peripheral Nervous System After Peripheral Neuropathy in Mice,” Pain 137:81-95 (2008), which are hereby incorporated by reference in their entirety).
Mechanical allodynia was evaluated using repeated stimulations with a Von Frey filament exerting 0.02 grams of force onto the plantar surface (Colburn et al., “The Effect of Site and Type of Nerve Injury on Spinal Glial Activation and Neuropathic Pain Behavior,” Exp. Neurol. 157:289-304. (1999), which is hereby incorporated by reference in its entirety). The percentage of negative responses of a total of 10 trials was calculated for each foot. Thermal hyperalgesia was assessed using an Analgesymeter (Ugo Basile, Comerio, Italy) (Stein et al., “Intrinsic Mechanisms of Antinociception in Inflammation: Local Opioid Receptors and Beta-Endorphin,” J. Neurosci. 10:1292-1298 (1990), which is hereby incorporated by reference in its entirety). In short, a mobile radiant heat source was focused on the hind paw, and the paw withdrawal latencies were defined as the time taken by the mouse to remove its hind paw from the heat source (max 20 sec to avoid tissue damage). The paw withdrawal was repeated three times for each foot and the average calculated. To avoid conditioning to stimulation a 5 min rest period was interposed between each trial in both thermal and mechanical tests. Behavioral parameters were evaluated prior to intraplantar injection of CFA or nerve ligation (i.e. day 0), and again on day 3-4 in mice receiving the CFA injection, and at day 5-7 in mice with nerve ligation unless otherwise noted. Prior to injection of CCPA, saline, or acupuncture in the Zusanli point, the mice were placed in a restraining under light isoflurane anesthesia (˜1%). […]

The test system of test [5] is mice with inflammatory or neuropathic pain. Kind of test: Statements covering both inflammatory and neuropathic pain models. Type of test: in vivo. To be noted: 50 mg/kg i.p. 30 min prior to 30 min acupuncture; vehicle + acupuncture ~[…]. As for the experimental part:
Peripheral inflammation was induced by injection of Complete Freud Adjuvant (CFA, mixed with an equal amount of oil, total volume 0.1 ml) in the plantar surface of the left hind paw of mice (25-30 g, Jackson labs) (Raghavendra et al., “Complete Freunds Adjuvant-Induced Peripheral Inflammation Evokes Glial Activation and Proinflammatory Cytokine Expression in the CNS,” Eur. J. Neurosci. 20:467-473 (2004), which is hereby incorporated by reference in its entirety). An equal amount of saline (0.1 ml) was injected in the right hind paw as control. […]
Mechanical allodynia was evaluated using repeated stimulations with a Von Frey filament exerting 0.02 grams of force onto the plantar surface (Colburn et al., “The Effect of Site and Type of Nerve Injury on Spinal Glial Activation and Neuropathic Pain Behavior,” Exp. Neurol. 157:289-304. (1999), which is hereby incorporated by reference in its entirety). The percentage of negative responses of a total of 10 trials was calculated for each foot. Thermal hyperalgesia was assessed using an Analgesymeter (Ugo Basile, Comerio, Italy) (Stein et al., “Intrinsic Mechanisms of Antinociception in Inflammation: Local Opioid Receptors and Beta-Endorphin,” J. Neurosci. 10:1292-1298 (1990), which is hereby incorporated by reference in its entirety). […] The paw withdrawal was repeated three times for each foot and the average calculated. […] Behavioral parameters were evaluated prior to intraplantar injection of CFA or nerve ligation (i.e. day 0), and again on day 3-4 in mice receiving the CFA injection, and at day 5-7 in mice with nerve ligation unless otherwise noted. […]

In test [6] the target is T1, adenosine kinase (Homo sapiens, UniProt P55263). To be noted: adenosine as substrate; cited from earlier work.
T1 sequence (P55263 whole entry, species assumed): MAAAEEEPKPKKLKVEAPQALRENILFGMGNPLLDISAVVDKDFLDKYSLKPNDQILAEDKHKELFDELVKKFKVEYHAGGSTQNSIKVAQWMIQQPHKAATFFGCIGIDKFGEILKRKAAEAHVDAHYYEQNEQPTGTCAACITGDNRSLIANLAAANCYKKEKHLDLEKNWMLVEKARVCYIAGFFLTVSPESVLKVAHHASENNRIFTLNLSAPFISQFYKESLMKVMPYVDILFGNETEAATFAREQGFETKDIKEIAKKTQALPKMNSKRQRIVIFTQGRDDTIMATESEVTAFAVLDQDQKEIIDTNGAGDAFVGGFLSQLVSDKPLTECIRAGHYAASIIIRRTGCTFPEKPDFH
Test [7] concerns the target T1, adenosine kinase. To be noted: cited from earlier work.

Turning to `OC[C@H]1O[C@@H](n2cnc3c2NC=NC[C@H]3O)C[C@@H]1O` [deoxycoformycin], in test [1], the “pain relief on co-administration with an adenosine kinase inhibitor” value is recorded as “augmented the pain relief”. The “reduction of AMP conversion to IMP” value in test [2] is given as about 50%; in test [2] (listed as Deoxycoformycin), “approximately 50%”. Also, the “tactile or thermal sensitivity when not combined with acupuncture” value in test [3] (CFA, no acupuncture) is given as “does not alter the pain sensitivity; also recorded: no effect”. Further, the “effect on duration of acupuncture pain relief, mechanical and thermal stimulation” value in test [3] (WT mice, combined with acupuncture) is reported as “prolonged”; in test [4], “prolonged”. Besides, the “duration of suppression of mechanical allodynia and thermal pain” value in test [5] was about 3.0 h.

As to `Nc1ncnc2c1ncn2[C@@H]1O[C@H](CO)[C@@H](O)[C@H]1O` [adenosine], in test [6], the Km is about 0.02 µM.

With `Nc1ncnc2c1c(Br)cn2[C@@H]1C[C@H](N)[C@@H](O)[C@H]1O` [A-286501, N7-((1′R,2′S,3′R,4′S)-2′,3′-dihydroxy-4′-amino-cyclopentyl)-4-amino-5-bromo-pyrrolo[2,3-a]pyrimidine], in test [7], the IC50 was 0.47 nM.
